# According to paper PMC3913610, “Antitumor Activity and Induction of TP53-Dependent Apoptosis toward Ovarian Clear Cell Adenocarcinoma by the Dual PI3K/mTOR Inhibitor DS-7423” (PLoS ONE, 2014):
# Tests used:
# 227 kinases = assay: Kinase selectivity panel; format: biochemical; conditions: 227 kinases tested, except MLK1 and NEK2
# TOV-21G xenografts = assay: Tumor xenograft in nude mice; format: in vivo
# Source text: (§1) Specific pathogen-free female nude mice (BALB/cAJcl-nu/nu), 6 weeks old, were purchased from CLEA Japan, Inc (Tokyo, Japan). Subcutaneous xenograft tumors in the mice were established by the injection of a 100-μL suspension containing 5×10^6 cells of the TOV-21, RMG-I, or ES-2 lines in PBS. Tumors were removed after exponential growth, cut into 3-mm pieces, and transplanted subcutaneously into other mice for RMG-I cells. DS-7423 was suspended in 0.5 w/v% Methyl Cellulose 400 solution (Wako Pure Chemical Industries, Ltd.) Oral daily administration of DS-7423 started 8–22 days later, following the injection of the cells (5–6×10^6 cells/0.1 mL). One week after tumor transplantation, mice were assigned randomly to one of the […] treatment regimens: (1) non-treated control, (2) DS-7423 (1.5 mg/kg), (3) DS-7423 (3 mg/kg), and (4) DS-7423 (6 mg/kg). Each treatment group consisted of five mice. DS-7423 was injected orally (p.o.) once a day. Tumor volumes (in mm^3) were calculated by the formula: ([major axis] × [minor axis]^2/2). After the treatment, the tumors were removed and analyzed by western blotting. Tumor weight (wet weight) was measured, and the average weight was calculated for each group.
# RMG-I xenografts = assay: Tumor xenograft in nude mice; format: in vivo
# Source text: as §1
# PI3Kγ = PI3Kγ (Homo sapiens, UniProt P48736); assay: PI3Kγ inhibition; format: biochemical
# Chain of PI3Kγ (P48736 whole entry): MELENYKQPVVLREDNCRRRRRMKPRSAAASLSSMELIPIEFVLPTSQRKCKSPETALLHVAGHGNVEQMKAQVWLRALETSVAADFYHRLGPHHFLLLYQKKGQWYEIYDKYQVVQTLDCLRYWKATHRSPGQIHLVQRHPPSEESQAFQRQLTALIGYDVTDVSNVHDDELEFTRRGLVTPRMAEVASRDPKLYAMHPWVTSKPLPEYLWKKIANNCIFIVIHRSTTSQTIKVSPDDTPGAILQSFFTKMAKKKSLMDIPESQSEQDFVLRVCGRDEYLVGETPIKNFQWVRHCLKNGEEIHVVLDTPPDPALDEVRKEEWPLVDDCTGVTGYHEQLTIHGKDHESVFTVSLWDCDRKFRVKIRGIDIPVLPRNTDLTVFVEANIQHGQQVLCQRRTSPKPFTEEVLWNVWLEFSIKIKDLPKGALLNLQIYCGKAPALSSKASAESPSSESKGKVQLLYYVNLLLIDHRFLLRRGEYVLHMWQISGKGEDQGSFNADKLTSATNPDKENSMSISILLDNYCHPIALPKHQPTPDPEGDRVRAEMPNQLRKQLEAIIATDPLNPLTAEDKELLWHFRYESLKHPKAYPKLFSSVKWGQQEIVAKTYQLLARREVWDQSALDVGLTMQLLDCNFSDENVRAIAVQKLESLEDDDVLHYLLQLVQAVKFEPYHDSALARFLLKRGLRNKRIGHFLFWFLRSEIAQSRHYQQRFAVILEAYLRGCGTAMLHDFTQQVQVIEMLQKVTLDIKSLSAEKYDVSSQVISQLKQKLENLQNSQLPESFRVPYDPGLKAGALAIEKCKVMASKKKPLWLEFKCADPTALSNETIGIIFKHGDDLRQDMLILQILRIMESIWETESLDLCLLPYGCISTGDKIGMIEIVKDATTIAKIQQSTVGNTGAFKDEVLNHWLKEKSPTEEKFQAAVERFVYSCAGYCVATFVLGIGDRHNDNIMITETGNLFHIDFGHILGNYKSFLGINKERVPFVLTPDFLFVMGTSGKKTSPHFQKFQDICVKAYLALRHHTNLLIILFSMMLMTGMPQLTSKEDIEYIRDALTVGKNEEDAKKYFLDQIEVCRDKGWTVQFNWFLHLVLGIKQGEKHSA
# ES-2 xenografts = assay: Tumor xenograft in nude mice; format: in vivo
# Source text: as §1
# Supplementary file pone.0087220.s002.pptx: Figure S2 In vivo effect of DS-7423 in nude mice. […] The levels of p-Akt (Thr-308) and p-S6 (Ser-240/244) were assessed. […]
# PI3Kα = PI3Kα (Homo sapiens, UniProt P42336); assay: PI3Kα inhibition; format: biochemical
# Chain of PI3Kα (P42336 whole entry): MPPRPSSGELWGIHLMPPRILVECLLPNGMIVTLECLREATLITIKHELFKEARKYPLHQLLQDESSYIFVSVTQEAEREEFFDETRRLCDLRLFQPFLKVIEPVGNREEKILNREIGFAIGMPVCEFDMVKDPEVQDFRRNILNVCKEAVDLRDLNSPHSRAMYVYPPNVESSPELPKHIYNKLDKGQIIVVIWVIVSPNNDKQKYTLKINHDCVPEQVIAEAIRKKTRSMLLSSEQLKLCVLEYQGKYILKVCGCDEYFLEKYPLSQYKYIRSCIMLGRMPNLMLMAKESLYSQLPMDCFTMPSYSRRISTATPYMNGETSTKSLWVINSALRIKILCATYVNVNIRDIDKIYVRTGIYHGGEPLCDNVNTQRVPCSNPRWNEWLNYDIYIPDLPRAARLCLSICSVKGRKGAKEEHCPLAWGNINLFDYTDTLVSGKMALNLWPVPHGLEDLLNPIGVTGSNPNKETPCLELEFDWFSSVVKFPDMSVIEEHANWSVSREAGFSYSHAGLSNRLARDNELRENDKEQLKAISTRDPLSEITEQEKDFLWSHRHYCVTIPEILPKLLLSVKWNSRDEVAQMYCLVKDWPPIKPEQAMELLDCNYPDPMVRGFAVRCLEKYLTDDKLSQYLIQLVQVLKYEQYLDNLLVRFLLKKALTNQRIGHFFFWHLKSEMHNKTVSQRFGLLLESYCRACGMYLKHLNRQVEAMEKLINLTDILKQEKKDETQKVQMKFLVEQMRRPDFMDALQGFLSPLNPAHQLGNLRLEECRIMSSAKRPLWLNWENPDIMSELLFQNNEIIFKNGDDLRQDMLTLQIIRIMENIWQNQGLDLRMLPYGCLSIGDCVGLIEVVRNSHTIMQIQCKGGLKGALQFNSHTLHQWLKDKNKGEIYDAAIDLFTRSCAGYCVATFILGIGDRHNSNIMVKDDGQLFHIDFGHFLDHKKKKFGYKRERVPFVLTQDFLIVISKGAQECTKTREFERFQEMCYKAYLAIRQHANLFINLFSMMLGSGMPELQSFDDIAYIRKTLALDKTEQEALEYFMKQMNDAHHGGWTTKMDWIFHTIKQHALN
# Chain of PI3Kα (P27986 whole entry partner): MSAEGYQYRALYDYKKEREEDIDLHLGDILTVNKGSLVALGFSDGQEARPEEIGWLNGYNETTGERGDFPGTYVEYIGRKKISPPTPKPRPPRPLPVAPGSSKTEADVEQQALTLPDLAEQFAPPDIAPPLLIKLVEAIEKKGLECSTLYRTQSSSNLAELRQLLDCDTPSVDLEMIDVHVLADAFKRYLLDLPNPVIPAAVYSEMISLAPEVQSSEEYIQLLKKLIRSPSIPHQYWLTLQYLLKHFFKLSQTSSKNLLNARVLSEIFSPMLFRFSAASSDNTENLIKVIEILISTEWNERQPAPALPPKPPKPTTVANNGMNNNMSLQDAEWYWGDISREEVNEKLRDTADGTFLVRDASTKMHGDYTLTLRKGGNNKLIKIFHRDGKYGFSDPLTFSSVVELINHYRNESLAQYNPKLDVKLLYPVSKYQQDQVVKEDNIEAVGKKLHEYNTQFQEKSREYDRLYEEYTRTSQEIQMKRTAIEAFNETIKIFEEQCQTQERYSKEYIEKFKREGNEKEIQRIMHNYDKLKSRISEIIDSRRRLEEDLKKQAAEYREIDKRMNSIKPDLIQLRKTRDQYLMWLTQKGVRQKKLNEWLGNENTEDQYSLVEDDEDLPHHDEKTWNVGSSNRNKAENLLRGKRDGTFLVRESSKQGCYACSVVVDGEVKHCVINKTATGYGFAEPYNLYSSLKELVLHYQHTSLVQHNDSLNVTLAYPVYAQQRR
structure (smiles),measurement,setting,value
CC(=O)N1CCN(c2nc3c(N4CCOCC4)nc(-c4cnc(N)nc4)nc3n2CC(F)(F)F)C[C@H]1C [DS-7423],Relevant activity (IC50 <200 nM),227 kinases,not observed
same,"adverse effects, including body weight loss of more than 10%","TOV-21G xenografts; TOV-21G xenograft mice, oral daily 1.5, 3 or 6 mg/kg",No significant adverse effects
same,levels of p-AKT (Thr308) and p-S6 (Ser240/244) in xenografts,"TOV-21G xenografts; TOV-21G xenografts, 2 and 6 h after last administration",suppressed
same,tumor growth of xenografts,"TOV-21G xenografts; TOV-21G, oral daily 1.5, 3 or 6 mg/kg, dose-dependent",significantly suppressed
same,"adverse effects, including body weight loss of more than 10%","RMG-I xenografts; RMG-I xenograft mice, oral daily 1.5, 3 or 6 mg/kg",No significant adverse effects
same,levels of p-AKT (Thr308) and p-S6 (Ser240/244) in xenografts,"RMG-I xenografts; RMG-I xenografts, 2 and 6 h after last administration",suppressed
same,tumor growth of xenografts,"RMG-I xenografts; RMG-I, oral daily 1.5, 3 or 6 mg/kg, dose-dependent",significantly suppressed
same,IC50,PI3Kγ,249 nM
same,anti-tumor effect compared with TOV-21G and RMG-I xenografts,ES-2 xenografts,weaker
same,estimated tumor volumes compared to the control,"ES-2 xenografts; 6 mg/kg daily, totally 8 times",smaller
same,IC50,PI3Kα,15.6 nM
